Data on nine compounds can be found in patent publication EP3705478B1, “TRIAZINE COMPOUND AND PHARMACEUTICALLY ACCEPTABLE SALT THEREOF” (Shenzhen Forward Pharmaceuticals Co., Ltd., priority 2017, dated 2018).

For data set [1], the system named is BalF3-DTM-EGFR (mutant EGFR) cells. Description: Test 5: Proliferation Test of Ba/F3-DTM-EGFR cells (Cell Titer-Glo). It is filed as cell-based. The following applies: for Inhibitory selectivity of the compound, Ratio of IC50 value of Test 4 to IC50 value of Test 5: Ba/F3-CAT-EGFR vs Ba/F3-DTM-EGFR cells; for IC50: Ba/F3-DTM-EGFR cells (T790M mutation and Exon19-deficient EGFR), 72 hours. The protocol:
Ba/F3-DTM-EGFR cell viability detection is based on the detection technology developed by CellTiter-Glo®. […] This cell strain lives depending on the kinase activity of EGFR, if the mutant EGFR is inhibited by a small molecule compound, the cell strain will die. Therefore, the specificity and activity of EGFR small molecules on mutant EGFR may be evaluated by observing the effect of EGFR small molecules on cell viability.
BalF3-DTM-EGFR (mutant EGFR) cells are cultured in RPMI1640 medium containing 10% fetal bovine serum and 2 mM glutamine. Cells are grown in a humidified incubator with 5% CO2 at 37°C.
(§1) The number of viable cells in the culture is determined according to the protocol described in Cell Titer-Glo Luminescent cell Viability Assay (Promega catalog number: # G7570) of Promega company. 100 µl of cells (3000 cells/well) are cultured in growth medium in a Corning 96-well plate with black transparent bottom, culturing in a humidified incubator with 5% CO2 at 37°C overnight. The compound serially diluted in 100% DMSO is added to the cells by pipette, culturing the cells for another 72 hours. 100 µl of the mixed Cell Titer-Glo reagent is added to the cells in the 96-well culture plate to lyse the cells, mixing gently. Subsequently, the […] is detected on the Envision microplate detector to obtain data of the compound. Finally, the data is input into a suitable software package (such as Prism) for curve fitting analysis.
A general note: ATP-based viability assays read luminescence as a measure of living cells.

In data set [2] the test system is Ba/F3-CAT-EGFR (wild-type EGFR) cells. Put plainly: Test 4: Proliferation Test of BalF3-CAT-EGFR cells (Cell Titer-Glo). In kind it is cell-based. The following applies: 72 hours.
Excerpt: BalF3-CAT-EGFR cell viability detection is based on the detection technology developed by CellTiter-Glo®. BalF3 cells are transformed by overexpressing the intracellular kinase region of wild-type EGFR to construct a CAT-EGFR tool cell strain. This cell strain lives depending on the kinase activity of EGFR, if the wild-type EGFR is inhibited by a small molecule compound, the cell strain will die. Therefore, the specificity and activity of EGFR small molecules on wild-type EGFR may be evaluated by observing the effect of EGFR small molecules on cell viability.
Ba/F3-CAT-EGFR (wild-type EGFR) cells are cultured in RPMI1640 medium containing 10% fetal bovine serum and 2 mM glutamine. Cells are grown in a humidified incubator with 5% CO2 at 37°C.
as §1

The subject of a further data set is A431 (wild-type EGFR). Put plainly: Test 2: Proliferation Test of Wild-type EGFR Cells (Cell Titer-Glo). It is filed as cell-based. Conditions: Homo sapiens, read-out: IC50 value, Test 2. The protocol:
The human […] cell line A431 (wild-type EGFR) is obtained from the American Type Culture Collection. […] cells are cultured in RPMI1640 medium containing 10% fetal bovine serum and 2 mM glutamine. Cells are grown in a humidified incubator with 5% CO2 at 37°C.
as §1, with “company. 90” for “company. 100”, “cells (8000” for “cells (3000”

In data set [3] the test system is NCI-H1975 (L858R/T790M double mutant EGFR). Put plainly: Test 3: Proliferation Test of L858R/T790M EGFR (double mutant) cells (Cell Titer-Glo). Conditions: for IC50: Homo sapiens, NCI-H1975 cells, 72 hours; for Ratio of IC50 value of Test 2 to that of Test 3: selectivity: wild-type EGFR cells vs L858R/T790M EGFR (double mutant) cells. In kind it is cell-based, human. How it is done:
(§2) NCI-H1975 cells are cultured in RPMI1640 medium containing 10% fetal bovine serum and 2 mM glutamine. Cells are grown in a humidified incubator with 5% CO2 at 37°C.
as §1, with “company. 90” for “company. 100”, “cells (8000” for “cells (3000”

Data set [4] addresses T1, L858R/T790M EGFR (double mutant) (Homo sapiens, UniProt P00533, L858R/T790M).
T1 construct: The detection of phosphorylated p-EGFR of endogenous cells in cell lysate; host or cells: NCI-H1975
Put plainly: Test 1: Phosphorylation Test of L858R/T790M EGFR (double mutant) Cells (phospho-EGFR ELISA). It is filed as cell-based. The following applies: NCI-H1975 cells, p-EGFR in cell lysate, compound incubation 2 hours. The protocol: as §2
The detection of phosphorylated p-EGFR of endogenous cells in cell lysate is performed according to the protocol described in the DuoSet IC Human Phospho-EGFR ELISA (R&D Systems catalog number: # DYC1095) of R&D Systems Company. 90 µl of cells (8000 cells/well) are cultured in growth medium in a Corning 96-well plate with black transparent bottom, after culturing in a humidified incubator with 5% CO2 at 37°C overnight, the cell culture medium is replaced with RPMI1640 medium containing 1% fetal bovine serum and 2 mM glutamine to culture continuously. The compound serially diluted in 100% DMSO is added to the cells by pipette, and after gently mixing the medium, the cells are incubated for another 2 hours. 100 µl of 1X lysis buffer is added to each well. Greiner high-binding 96-well plates are coated with capture antibody, and then blocked with 3% BSA. After removing the blocking solution, 100 µl of lysate is transferred to a Greiner high-binding 96-well plate, then incubating for 2 hours. After gently mixing and washing the culture plate with PBS, 100 µl of detection antibody is added, then incubating for 2 hours. […] 100 µl of stop solution is added to the culture plate, and the absorbance of each well at 450 nm wavelength is measured. Finally, the data is input into a suitable software package (such as Prism) for curve fitting analysis.
On the technique in general: ELISA stands for enzyme-linked immunosorbent assay.

Data set [5] is described as follows: Test 6: Test of Plasma Protein Binding Rate (equilibrium dialysis), mouse plasma. It is filed as in vitro ADME. The following applies: equilibrium dialysis at 37°C for 4 hours, read-out: % Unbound of mouse plasma sample in Test 6. The protocol:
(§3) The test of plasma protein binding rate is performed by using the 96-well equilibrium dialysis device from HTDialysis Company. The human plasma samples or mouse plasma samples with a concentration of 2 µM for the test and control compounds are performed equilibrium dialysis at 37°C for 4 hours so as to conduct the protein binding study. 150 µL of plasma sample with the test compound is added to the administration end of each dialysis well, and 150 µL of blank dialysis buffer is added to the receiving end corresponding to the dialysis well. The dialysis plate is then placed in a humidified incubator with 5% CO2 to incubate at 37°C for 4 hours. After dialysis, 50 µL of the dialyzed buffer sample and the dialyzed plasma sample are transferred to a new 96-well plate (sample receiving plate). The corresponding volume of corresponding blank plasma or buffer is added to the sample. All samples are analyzed by LC/MS/MS after protein precipitation. The concentration of the sample is expressed as the ratio of the peak area of the compound to the internal standard substance (semi-quantitative). Finally, the % Unbound, % Bound, and % Recovery of the compound are calculated according to the formula.

Data set [6] in a line: Test 6: Test of Plasma Protein Binding Rate (equilibrium dialysis), human plasma. In kind it is in vitro ADME. Conditions: equilibrium dialysis at 37°C for 4 hours, read-out: % Unbound of human plasma sample in Test 6. The protocol:
as §3
(In general: In equilibrium dialysis only unbound substance equilibrates across the membrane.)

Setting [7] is: A-431, wild-type EGFR cells, 72 hours.

Read-outs that look alike come from different tables or passages of the source.

T1 sequence (P00533 25-1210 T790M/L858R): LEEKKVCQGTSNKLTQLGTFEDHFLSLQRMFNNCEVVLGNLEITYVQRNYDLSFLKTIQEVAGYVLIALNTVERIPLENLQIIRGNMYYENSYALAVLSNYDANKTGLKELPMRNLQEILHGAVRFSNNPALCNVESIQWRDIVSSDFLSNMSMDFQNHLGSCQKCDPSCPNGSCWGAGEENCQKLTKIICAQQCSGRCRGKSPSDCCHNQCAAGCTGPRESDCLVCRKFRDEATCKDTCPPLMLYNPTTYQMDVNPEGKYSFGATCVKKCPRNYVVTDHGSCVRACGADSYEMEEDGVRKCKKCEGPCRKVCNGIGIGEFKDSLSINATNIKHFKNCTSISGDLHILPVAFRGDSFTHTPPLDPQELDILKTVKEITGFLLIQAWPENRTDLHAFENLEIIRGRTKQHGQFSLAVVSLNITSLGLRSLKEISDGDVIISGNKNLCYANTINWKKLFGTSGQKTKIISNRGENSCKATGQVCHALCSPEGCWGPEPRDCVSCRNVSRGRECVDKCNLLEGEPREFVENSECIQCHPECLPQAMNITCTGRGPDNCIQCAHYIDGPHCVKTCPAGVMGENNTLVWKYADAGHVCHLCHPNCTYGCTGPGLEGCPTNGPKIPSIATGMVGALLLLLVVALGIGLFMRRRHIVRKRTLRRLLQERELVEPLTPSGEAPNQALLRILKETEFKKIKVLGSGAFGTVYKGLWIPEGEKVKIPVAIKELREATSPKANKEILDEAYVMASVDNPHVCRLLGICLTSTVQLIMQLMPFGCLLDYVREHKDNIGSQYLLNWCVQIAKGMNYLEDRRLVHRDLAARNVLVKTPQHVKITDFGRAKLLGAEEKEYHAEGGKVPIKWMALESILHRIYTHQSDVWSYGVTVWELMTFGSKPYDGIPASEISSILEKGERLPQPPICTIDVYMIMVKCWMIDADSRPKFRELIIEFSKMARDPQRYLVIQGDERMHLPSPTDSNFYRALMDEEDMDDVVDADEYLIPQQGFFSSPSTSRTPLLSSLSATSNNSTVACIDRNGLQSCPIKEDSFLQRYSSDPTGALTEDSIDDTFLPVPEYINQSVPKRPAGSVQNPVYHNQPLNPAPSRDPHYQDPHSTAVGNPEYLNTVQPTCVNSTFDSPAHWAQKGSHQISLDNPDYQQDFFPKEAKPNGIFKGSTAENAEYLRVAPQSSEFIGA

The term IC50 denotes the midpoint of a concentration-inhibition curve. As to `C=CC(=O)Nc1cc(Nc2ncnc(-n3nc(C)c4ccc(F)cc43)n2)c(OC)cc1N(C)CCN(C)C` [Compound 20, N-(2-((2-(dimethylamino)ethyl)(methyl)amino)-5-((4-(6-fluoro-3-methyl-1H-indazol-1-yl)-1,3 ,5-triazin-2-yl)amino)-4-methoxyphenyl)acrylamide], the “Inhibitory selectivity of the compound, Ratio of IC50 value of Test 4 to IC50 value of Test 5” value in data set [1] was greater than 1851.85. Further, the 50% inhibitory concentration (IC50) in data set [1] was 5.4 nM; in data set [2], greater than 10000 nM.

Consider `C=CC(=O)Nc1cc(Nc2ncnc(-c3cnc4c(C)cccn34)n2)c(OC)cc1N(C)CCN(C)C` [Compound 26, N-(2-((2-(dimethylamino)ethyl)(methyl)amino)-4-methoxy-5-((4-(8-methylimidazolo[1,2-a]pyridin-3-yl)-1,3,5-triazin-2-yl)amino)phenyl)acrylamide], for which the concentration for half-maximal inhibition (IC50) in the data set with A431 (wild-type EGFR) (setting [7]) was 718 nM; in data set [1], 3.7 nM; in data set [3] it was 4 nM; in data set [4], 12.1 nM; in data set [2], greater than 10000 nM. For the same compound, in data set [1], the “Inhibitory selectivity of the compound, Ratio of IC50 value of Test 4 to IC50 value of Test 5” value was greater than 2702.70. The “Ratio of IC50 value of Test 2 to that of Test 3” value (from here on “Ratio of IC50 value … of Test 3”) in data set [3] turned out to be 179.5.

With `C=CC(=O)Nc1cc(Nc2ncnc(-n3cc(C)c4cnccc43)n2)c(OC)cc1N(C)CCN(C)C` [Compound 18, N-(2-((2-(dimethylamino)ethyl)(methyl)amino)-4-methoxy-5-((4-(3-methyl-1H-pyrrolo[3,2-c)pyridin-1-yl)-1,3,5-triazin-2-yl)amino)phenyl)acrylamide], in data set [1], the “Inhibitory selectivity of the compound, Ratio of IC50 value of Test 4 to IC50 value of Test 5” value was greater than 1923.08 and the IC50 turned out to be 5.2 nM. Besides, the IC50 in data set [2] was greater than 10000 nM.

`C=CC(=O)Nc1cc(Nc2nccc(-c3cn(C)c4ccccc34)n2)c(OC)cc1N(C)CCN(C)C` [Osimertinib (AZD9291), Osimertinib, reference compound]: the fraction unbound at 4 h, 2 µM was 0.005 in data set [5] and 0.025 in data set [6]. Moreover, the concentration for half-maximal inhibition (IC50) came to […] in the data set on A431 (wild-type EGFR) (A-431, 72 h); 7.1 nM in data set [1]; […] in data set [3]; 3120 nM in data set [2].

Turning to `C=CC(=O)Nc1cc(Nc2ncnc(-c3cnc4c(C(F)(F)F)cccn34)n2)c(OC)cc1N(C)CCN(C)C` [Compound 28, N-(2-((2-(dimethylamino)ethyl)(methyl)amino)-4-methoxy-5-((4-(8-(trifluoromethyl)imidazolo[1,2-a]pyridin-3-yl)-1,3,5-triazin-2-yl)amino)phenyl)acrylamide], the IC50 is 758 nM in the data set with A431 (wild-type EGFR) (setting [7]); 4 nM in data set [1]; 4 nM in data set [3]; 11.4 nM in data set [4]; greater than 10000 nM in data set [2]. Moreover, in data set [1], the “Inhibitory selectivity of the compound, Ratio of IC50 value of Test 4 to IC50 value of Test 5” value is listed as greater than 2500.00. For the same compound, the “Ratio of IC50 value … of Test 3” value in data set [3] is recorded as 189.5.

For `C=CC(=O)Nc1cc(Nc2ncnc(-c3cnc4c(F)cccn34)n2)c(OC)cc1N(C)CCN(C)C` [Compound 27, N-(2-((2-(dimethylamino)ethyl)(methyl)amino)-5-((4-(8-fluoroimidazolo[1,2-a]pyridin-3-yl)-1 ,3,5-triazin-2-yl)amino)-4-methoxyphenyl)acrylamide], the IC50 is 883 nM with A431 (wild-type EGFR) (setting [7]); 3.2 nM in data set [1]; 5 nM in data set [3]; 11.8 nM in data set [4]; greater than 10000 nM in data set [2]. In addition, in data set [1], the “Inhibitory selectivity of the compound, Ratio of IC50 value of Test 4 to IC50 value of Test 5” value was greater than 3125.00. Further, the “Ratio of IC50 value … of Test 3” value in data set [3] was 176.6.

Consider `C=CC(=O)Nc1cc(Nc2ncnc(-n3ccc4ncccc43)n2)c(OC)cc1N(C)CCN(C)C` [Compound 6, N-(5-((4-(1H-pyrrolo[3,2-b]pyridin-1-yl)-1,3,5-triazin-2-yl)amino)-2-((2-(dimethylamino)ethyl)(methyl)amino)-4-methoxyphenyl)acrylamide], for which the IC50 in the data set on A431 (wild-type EGFR) (setting [7]) came out at 579 nM; in data set [3], 3 nM; in data set [4], 15.1 nM. The “Ratio of IC50 value … of Test 3” value in data set [3] turned out to be 193.

Take `C=CC(=O)Nc1cc(Nc2ncnc(-n3nc(F)c4ccccc43)n2)c(OC)cc1N(C)CCN(C)C` [Compound 29, N-(2-((2-(dimethylamino)ethyl)(methyl)amino)-5-((4-(3-fluoro-1H-indazol-1-yl)-1,3,5-triazin-2-yl)amino)-4-methoxyphenyl)acrylamide]: the IC50 is 941 nM in the data set with A431 (wild-type EGFR) (setting [7]); 4.5 nM in data set [1]; 4 nM in data set [3]; 10.6 nM in data set [4]; greater than 10000 nM in data set [2]. In data set [1], the “Inhibitory selectivity of the compound, Ratio of IC50 value of Test 4 to IC50 value of Test 5” value is on record as greater than 2222.22. Further, the “Ratio of IC50 value … of Test 3” value in data set [3] was found to be 235.3.

With `C=CC(=O)Nc1cc(Nc2ncnc(N3CC(C)(C)c4ncccc43)n2)c(OC)cc1N(C)CCN(C)C` [Compound 11, N-(5-((4-(3,3-dimethyl-2,3-dihydro-1H-pyrrolo[3,2-b]pyridin-1-yl)-1,3,5-triazin-2-yl)amino)-2-((2-(dimethylamino)ethyl)(methyl)amino)-4-methoxyphenyl)acrylamide], the fraction unbound at 4 h, 2 µM was determined as 0.077 in data set [5] and 0.107 in data set [6]. Also, the “Inhibitory selectivity of the compound, Ratio of IC50 value of Test 4 to IC50 value of Test 5” value in data set [1] is on record as greater than 2941.18. Moreover, the IC50 was 3.4 nM in data set [1], 11.1 nM in data set [4] and greater than 10000 nM in data set [2].
